Assay results taken from patent US20120122860A1, “SOLID FORMS OF SULFONAMIDES AND AMINO ACIDS” (Plexxikon, Inc., priority 2009, published 2012).

Assays:
B-Raf = B-Raf (Homo sapiens, UniProt P15056); experiment: Kinase activity assay, B-Raf; format: biochemical; conditions: read-out: activity toward kinase B-Raf, IC50
B-Raf V600E = B-Raf V600E (Homo sapiens, UniProt P15056, V600E); experiment: Kinase activity assay, B-Raf V600E; format: biochemical; conditions: read-out: activity toward kinase B-Raf V600E, IC50
Kdr = Kdr (Homo sapiens, UniProt P35968); experiment: Kinase activity assay, Kdr
Src = Src (Homo sapiens, UniProt P12931); experiment: Kinase activity assay, Src
TEC = target: T1, TEC (Homo sapiens, UniProt P42680); experiment: Kinase activity assay, TEC
T1 sequence (P42680 1-631): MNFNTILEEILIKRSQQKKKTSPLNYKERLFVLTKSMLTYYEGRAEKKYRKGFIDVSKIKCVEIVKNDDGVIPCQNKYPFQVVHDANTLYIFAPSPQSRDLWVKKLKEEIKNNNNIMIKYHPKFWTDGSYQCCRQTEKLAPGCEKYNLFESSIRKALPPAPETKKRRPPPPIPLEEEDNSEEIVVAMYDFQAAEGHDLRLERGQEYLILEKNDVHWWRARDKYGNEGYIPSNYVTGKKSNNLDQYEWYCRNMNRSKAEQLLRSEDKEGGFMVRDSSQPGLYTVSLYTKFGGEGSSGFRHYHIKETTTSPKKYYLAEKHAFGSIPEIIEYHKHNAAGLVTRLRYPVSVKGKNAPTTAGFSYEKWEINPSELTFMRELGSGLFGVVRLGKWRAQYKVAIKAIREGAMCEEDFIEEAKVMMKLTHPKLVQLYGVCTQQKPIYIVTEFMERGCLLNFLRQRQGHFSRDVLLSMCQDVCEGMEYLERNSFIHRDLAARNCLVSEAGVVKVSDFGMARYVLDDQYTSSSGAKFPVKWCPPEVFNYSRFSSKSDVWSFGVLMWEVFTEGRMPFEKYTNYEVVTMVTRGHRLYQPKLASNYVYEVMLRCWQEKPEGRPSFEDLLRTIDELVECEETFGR

C-Raf = C-Raf (Homo sapiens, UniProt P04049); experiment: Kinase activity assay, C-Raf
MAP4K4 = MAP4K4 (Homo sapiens, UniProt O95819); experiment: Kinase activity assay, MAP4K4
Fms = Fms (Homo sapiens, UniProt P07333); experiment: Kinase activity assay, Fms
Kit = Kit (Homo sapiens, UniProt P10721); experiment: Kinase activity assay, Kit

Measured: IC50

Chain of C-Raf (P04049 whole entry): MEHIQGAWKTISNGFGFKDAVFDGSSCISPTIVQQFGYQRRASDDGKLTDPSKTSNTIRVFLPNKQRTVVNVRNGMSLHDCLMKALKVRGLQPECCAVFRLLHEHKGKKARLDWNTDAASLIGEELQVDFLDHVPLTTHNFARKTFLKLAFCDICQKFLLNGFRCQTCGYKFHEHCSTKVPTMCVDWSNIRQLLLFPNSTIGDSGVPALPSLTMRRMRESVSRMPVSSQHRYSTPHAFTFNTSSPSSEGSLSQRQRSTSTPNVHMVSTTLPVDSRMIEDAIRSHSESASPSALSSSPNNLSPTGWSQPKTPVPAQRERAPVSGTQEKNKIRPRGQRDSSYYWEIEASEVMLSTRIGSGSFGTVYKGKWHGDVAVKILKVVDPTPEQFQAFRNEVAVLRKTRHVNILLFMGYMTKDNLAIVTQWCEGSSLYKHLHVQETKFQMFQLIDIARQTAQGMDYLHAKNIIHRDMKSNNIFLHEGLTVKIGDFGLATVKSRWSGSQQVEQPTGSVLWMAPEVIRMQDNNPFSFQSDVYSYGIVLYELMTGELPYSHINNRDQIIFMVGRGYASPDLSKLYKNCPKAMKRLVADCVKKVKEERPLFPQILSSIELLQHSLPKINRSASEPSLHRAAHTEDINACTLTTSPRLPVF
Chain of Kdr (P35968 20-1356): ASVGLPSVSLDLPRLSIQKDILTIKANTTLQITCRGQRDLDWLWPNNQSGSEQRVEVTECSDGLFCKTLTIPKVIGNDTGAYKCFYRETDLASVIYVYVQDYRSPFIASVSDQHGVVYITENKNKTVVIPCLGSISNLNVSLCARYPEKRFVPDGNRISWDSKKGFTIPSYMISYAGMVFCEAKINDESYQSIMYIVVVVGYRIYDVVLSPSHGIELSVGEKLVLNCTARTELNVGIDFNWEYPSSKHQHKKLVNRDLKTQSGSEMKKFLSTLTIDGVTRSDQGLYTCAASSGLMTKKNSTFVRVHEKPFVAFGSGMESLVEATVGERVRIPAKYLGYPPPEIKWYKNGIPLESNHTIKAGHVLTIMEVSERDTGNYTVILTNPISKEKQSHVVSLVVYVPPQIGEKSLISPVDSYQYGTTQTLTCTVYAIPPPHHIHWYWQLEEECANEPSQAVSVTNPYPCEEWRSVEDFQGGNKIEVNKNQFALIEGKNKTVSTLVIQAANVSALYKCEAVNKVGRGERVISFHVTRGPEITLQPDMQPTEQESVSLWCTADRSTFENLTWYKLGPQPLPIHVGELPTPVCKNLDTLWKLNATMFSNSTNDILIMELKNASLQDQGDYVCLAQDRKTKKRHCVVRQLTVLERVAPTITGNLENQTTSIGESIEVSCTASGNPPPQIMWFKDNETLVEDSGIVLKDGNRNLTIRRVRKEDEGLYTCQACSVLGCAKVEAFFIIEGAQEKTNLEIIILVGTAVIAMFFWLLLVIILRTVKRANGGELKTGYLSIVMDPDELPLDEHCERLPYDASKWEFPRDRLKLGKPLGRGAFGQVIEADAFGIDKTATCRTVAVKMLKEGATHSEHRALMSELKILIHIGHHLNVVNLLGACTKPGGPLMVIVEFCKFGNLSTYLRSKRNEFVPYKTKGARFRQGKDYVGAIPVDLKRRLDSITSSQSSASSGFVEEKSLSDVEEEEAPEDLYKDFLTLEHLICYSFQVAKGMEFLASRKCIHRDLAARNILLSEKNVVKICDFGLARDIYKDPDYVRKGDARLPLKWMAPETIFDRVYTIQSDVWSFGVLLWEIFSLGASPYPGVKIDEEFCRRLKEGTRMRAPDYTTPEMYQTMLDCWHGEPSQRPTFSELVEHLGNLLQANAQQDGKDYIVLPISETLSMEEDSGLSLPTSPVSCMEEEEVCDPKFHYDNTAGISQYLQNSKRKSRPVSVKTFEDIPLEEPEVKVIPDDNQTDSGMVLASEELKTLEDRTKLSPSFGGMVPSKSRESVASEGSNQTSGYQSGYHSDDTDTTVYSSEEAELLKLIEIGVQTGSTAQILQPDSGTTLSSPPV
Chain of Kit (P10721 26-976): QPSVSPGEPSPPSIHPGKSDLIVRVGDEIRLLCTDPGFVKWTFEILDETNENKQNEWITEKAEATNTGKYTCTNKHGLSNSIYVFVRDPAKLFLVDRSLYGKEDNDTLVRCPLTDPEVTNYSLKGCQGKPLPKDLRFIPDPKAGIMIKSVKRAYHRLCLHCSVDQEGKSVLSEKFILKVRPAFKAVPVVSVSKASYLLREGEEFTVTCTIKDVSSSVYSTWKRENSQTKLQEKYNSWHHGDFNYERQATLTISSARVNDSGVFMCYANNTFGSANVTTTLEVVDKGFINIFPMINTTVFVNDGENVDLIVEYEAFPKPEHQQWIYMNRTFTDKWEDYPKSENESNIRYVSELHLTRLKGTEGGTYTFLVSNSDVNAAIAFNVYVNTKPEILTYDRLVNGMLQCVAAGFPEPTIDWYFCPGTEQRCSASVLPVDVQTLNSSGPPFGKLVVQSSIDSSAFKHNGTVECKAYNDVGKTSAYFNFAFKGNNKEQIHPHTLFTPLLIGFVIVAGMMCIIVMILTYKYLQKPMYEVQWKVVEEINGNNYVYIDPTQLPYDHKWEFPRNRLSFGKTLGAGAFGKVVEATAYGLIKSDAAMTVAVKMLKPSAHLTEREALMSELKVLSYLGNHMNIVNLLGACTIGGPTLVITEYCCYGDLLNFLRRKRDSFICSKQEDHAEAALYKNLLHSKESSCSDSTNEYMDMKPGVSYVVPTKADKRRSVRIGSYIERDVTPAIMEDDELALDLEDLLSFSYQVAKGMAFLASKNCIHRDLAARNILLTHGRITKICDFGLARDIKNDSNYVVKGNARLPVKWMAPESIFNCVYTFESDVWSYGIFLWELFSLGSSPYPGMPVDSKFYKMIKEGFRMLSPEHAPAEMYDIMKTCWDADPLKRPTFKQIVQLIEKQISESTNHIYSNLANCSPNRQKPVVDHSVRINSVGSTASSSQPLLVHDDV
Chain of Fms (P07333 20-972): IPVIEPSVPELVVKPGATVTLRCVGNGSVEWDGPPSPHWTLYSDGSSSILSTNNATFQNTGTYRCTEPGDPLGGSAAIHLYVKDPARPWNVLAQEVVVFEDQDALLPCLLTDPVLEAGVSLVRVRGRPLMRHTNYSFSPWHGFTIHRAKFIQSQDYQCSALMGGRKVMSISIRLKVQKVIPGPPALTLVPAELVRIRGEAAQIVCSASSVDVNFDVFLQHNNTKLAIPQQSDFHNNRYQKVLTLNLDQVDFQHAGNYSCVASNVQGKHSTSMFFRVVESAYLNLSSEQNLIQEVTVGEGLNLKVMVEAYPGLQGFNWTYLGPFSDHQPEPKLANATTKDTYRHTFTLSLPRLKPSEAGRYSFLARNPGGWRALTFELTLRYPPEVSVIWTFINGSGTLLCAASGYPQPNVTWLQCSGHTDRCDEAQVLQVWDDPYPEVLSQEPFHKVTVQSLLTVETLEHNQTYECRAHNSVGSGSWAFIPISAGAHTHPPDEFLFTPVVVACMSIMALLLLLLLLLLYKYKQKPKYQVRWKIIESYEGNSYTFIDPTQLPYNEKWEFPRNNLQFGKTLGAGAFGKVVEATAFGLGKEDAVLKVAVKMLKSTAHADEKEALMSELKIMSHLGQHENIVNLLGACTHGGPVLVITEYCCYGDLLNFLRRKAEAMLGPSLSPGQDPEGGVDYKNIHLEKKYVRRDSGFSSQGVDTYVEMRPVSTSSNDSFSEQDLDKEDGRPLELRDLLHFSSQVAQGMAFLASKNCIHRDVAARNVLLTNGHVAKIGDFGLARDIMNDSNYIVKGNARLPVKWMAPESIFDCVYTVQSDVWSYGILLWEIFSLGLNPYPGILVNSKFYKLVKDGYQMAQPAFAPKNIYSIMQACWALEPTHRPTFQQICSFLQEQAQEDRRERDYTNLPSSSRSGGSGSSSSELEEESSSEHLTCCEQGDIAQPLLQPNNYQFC
Chain of B-Raf V600E (P15056 whole entry V600E): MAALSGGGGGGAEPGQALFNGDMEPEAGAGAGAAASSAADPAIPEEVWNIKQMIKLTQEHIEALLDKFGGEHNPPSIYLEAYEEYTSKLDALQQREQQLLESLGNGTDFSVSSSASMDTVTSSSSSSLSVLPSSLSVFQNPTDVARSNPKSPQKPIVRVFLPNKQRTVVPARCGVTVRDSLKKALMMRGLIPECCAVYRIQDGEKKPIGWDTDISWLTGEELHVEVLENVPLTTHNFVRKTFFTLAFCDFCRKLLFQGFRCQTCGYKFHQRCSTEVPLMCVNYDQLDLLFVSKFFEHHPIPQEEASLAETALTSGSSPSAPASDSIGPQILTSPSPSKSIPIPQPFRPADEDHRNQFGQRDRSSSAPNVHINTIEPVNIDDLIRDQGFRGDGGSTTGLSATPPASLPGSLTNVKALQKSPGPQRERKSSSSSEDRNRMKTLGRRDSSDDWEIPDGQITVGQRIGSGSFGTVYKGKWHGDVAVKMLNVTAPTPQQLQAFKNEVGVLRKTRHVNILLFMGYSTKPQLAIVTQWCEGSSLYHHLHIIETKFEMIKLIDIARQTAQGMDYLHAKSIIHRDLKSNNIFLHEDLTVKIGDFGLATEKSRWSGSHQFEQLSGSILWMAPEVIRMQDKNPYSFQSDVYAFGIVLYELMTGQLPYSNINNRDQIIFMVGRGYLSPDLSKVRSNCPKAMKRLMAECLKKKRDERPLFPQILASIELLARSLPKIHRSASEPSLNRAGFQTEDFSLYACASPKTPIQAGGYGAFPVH
Chain of B-Raf (P15056 whole entry): as the sequence (P15056 whole entry V600E) above, with E600V counted along it

Cc1cnc2[nH]cc(C(=O)c3c(F)ccc(NS(=O)(=O)c4ccccn4)c3F)c2c1 [P-2070, Pyridine-2-sulfonic acid [2,4-difluoro-3-(5-methyl-1H-pyrrolo[2,3-b]pyridine-3-carbonyl)-phenyl]-amide]
not listed: Fms | Kit
≤ 10 µM: all other assays above

O=C(c1cc(NS(=O)(=O)c2cccc(Cl)c2)ccc1F)c1c[nH]c2ncc(Cl)cc12 [P-2111, 3-Chloro-N-[3-(5-chloro-1H-pyrrolo[2,3-b]pyridine-3-carbonyl)-4-fluoro-phenyl]-benzenesulfonamide]
≤ 10 µM: B-Raf V600E | Fms | Kdr | Kit | TEC

Cn1cc(-c2cnc3[nH]cc(C(=O)c4cccc(NS(=O)(=O)c5ccc(OC(F)(F)F)cc5)c4)c3c2)cn1 [P-2132, N-{3-[5-(1-Methyl-1H-pyrazol-4-yl)-1H-pyrrolo[2,3-b]pyridine-3-carbonyl]-phenyl}-4-trifluoromethoxy-benzenesulfonamide]
≤ 10 µM: B-Raf V600E | Fms | Kdr | Kit | TEC

Cn1cc(-c2cnc3[nH]cc(C(=O)c4cccc(NS(=O)(=O)c5cccc(OC(F)(F)F)c5)c4)c3c2)cn1 [P-2133, N-{3-[5-(1-Methyl-1H-pyrazol-4-yl)-1H-pyrrolo[2,3-b]pyridine-3-carbonyl]-phenyl}-3-trifluoromethoxy-benzenesulfonamide]
≤ 10 µM: B-Raf V600E | Fms | Kdr | Kit | TEC

Cn1cc(-c2cnc3[nH]cc(C(=O)c4cccc(NS(=O)(=O)c5ccc(C(F)(F)F)cc5)c4)c3c2)cn1 [P-2135, N-{3-[5-(1-Methyl-1H-pyrazol-4-yl)-1H-pyrrolo[2,3-b]pyridine-3-carbonyl]-phenyl}-4-trifluoromethyl-benzenesulfonamide]
≤ 10 µM: B-Raf V600E | Fms | Kdr | Kit | TEC

CCCS(=O)(=O)Nc1ccc(F)c(C(=O)c2c[nH]c3ncc(C(=O)OCC)cc23)c1F [P-2207, 3-[2,6-Difluoro-3-(propane-1-sulfonylamino)-benzoyl]-1H-pyrrolo[2,3-b]pyridine-5-carboxylic acid ethyl ester]
not listed: Src | C-Raf | MAP4K4
≤ 10 µM: all other assays above

CCC(C)S(=O)(=O)Nc1ccc(F)c(C(=O)c2c[nH]c3ncc(C)cc23)c1F (stereo not shown) [P-2312, Butane-2-sulfonic acid [2,4-difluoro-3-(5-methyl-1H-pyrrolo[2,3-b]pyridine-3-carbonyl)-phenyl]-amide]
not listed: B-Raf | Fms | Kit
≤ 10 µM: all other assays above

CCCS(=O)(=O)Nc1cccc(S(=O)(=O)c2c[nH]c3ncc(Cl)cc23)c1 [P-2467, Propane-1-sulfonic acid [3-(5-chloro-1H-pyrrolo[2,3-b]pyridine-3-sulfonyl)-phenyl]-amide]
≤ 10 µM: B-Raf V600E | TEC | C-Raf | MAP4K4
